Drawing on ChEMBL document CHEMBL4038315, “Identification of Peptidic Antagonists of Vascular Endothelial Growth Factor Receptor 1 by Scanning the Binding Epitopes of Its Ligands” (J Med Chem, 2017), this text covers inhibition for three compounds.

The test system of this experiment is HUVEC. The settings on record: Homo sapiens, 50 uM.

The source made the active and inactive calls. The calls are words filed in the database; no cut-off is given here. Positions of bridges follow the written chain, without caps; N, C: chain ends. Residues, ends and D or L forms follow the SMILES beside them.

Description: Antiangiogenic activity in HUVEC assessed as inhibition of VEGF-A-induced tube formation at 50 uM preincubated for 15 mins prior to VEGF-A addition measured after 4 hrs by matrigel assay

With `CSCC[C@@H]1NC(=O)[C@H](CC(C)C)NC(=O)[C@H](CCC(=O)O)NC(=O)[C@H](C(C)C)NC(=O)[C@H]([C@@H](C)O)NC(=O)[C@@H](NC(C)=O)CSSC[C@@H](C(N)=O)NC(=O)[C@@H]2CCCN2C(=O)[C@H](C(C)C)NC(=O)[C@H](CC(C)C)NC(=O)[C@H](CCC(N)=O)NC(=O)[C@H](CCCCN)NC(=O)[C@H](C)NC(=O)[C@H](C(C)C)NC(=O)[C@H]([C@@H](C)O)NC(=O)CNC1=O` (Ac-CTVELMGTVAKQLVPC-NH2; disulfide 1-16), the inhibition result is “Active”.

In the case of `CC[C@H](C)[C@@H]1NC(=O)[C@H](Cc2ccc(O)cc2)NC(=O)[C@H](CCC(=O)O)NC(=O)[C@H]([C@@H](C)CC)NC(=O)[C@H](CCC(=O)O)NC(=O)[C@H](CC(=O)O)NC(=O)[C@@H]2CCCN2C(=O)[C@H](Cc2ccc(O)cc2)NC(=O)[C@H](CCC(=O)O)NC(=O)[C@H](CCC(N)=O)NC(=O)[C@H](Cc2ccccc2)NC(=O)[C@@H](N)CSSC[C@@H](C(=O)N[C@@H](CCCCN)C(N)=O)NC1=O` (H-CFQEYPDEIEYICK-NH2; disulfide 1-13), the inhibition entry is “Active”.

As for `CC[C@H](C)[C@@H]1NC(=O)[C@H](Cc2ccc(O)cc2)NC(=O)[C@H](CCC(=O)O)NC(=O)[C@H]([C@@H](C)CC)NC(=O)[C@H](CCC(=O)O)NC(=O)[C@H](CC(=O)O)NC(=O)[C@@H]2CCCN2C(=O)[C@H](Cc2ccc(O)cc2)NC(=O)[C@H](CCC(=O)O)NC(=O)[C@H](CCC(N)=O)NC(=O)[C@@H](N)CSSC[C@@H](C(=O)N[C@@H](CCCCN)C(N)=O)NC1=O` (H-CQEYPDEIEYICK-NH2; disulfide 1-12), the inhibition entry was “Active”.
